Measured values reported in the NIST ThermoML archive (doi:10.1016/j.fluid.2005.08.006).
± gives the expanded uncertainty stated by the source.

Test: refractive index (Na D-line) (dimensionless)
Details: 293.15 K; 101.33 kPa; Liquid; Standard Abbe refractometry

Compound	refractive index
CCC(=O)O [propanoic acid]	1.381 ± 0.0007
C1CCCCC1 [cyclohexane]	1.4265 ± 0.0007
CCCCC(=O)O [pentanoic acid]	1.4087 ± 0.0007
CCO [ethanol]	1.3612 ± 0.0007
CCCCCC [hexane]	1.3749 ± 0.0007
CC(C)C(=O)O [2-methylpropanoic acid]	1.3933 ± 0.0007
CCCCCCCCCC [decane]	1.4105 ± 0.0007
